Our source for the AC50, IC50 and EC50 values is ChEMBL document CHEMBL1201862, “PubChem BioAssay data set” (2004).

What is called AC50 is the midpoint of the concentration-response curve, whichever way the signal moves. As usually defined, the EC50 is the concentration at which the effect is half-maximal.

Calls of active or inactive are those of the source. Where only a bound is given, the exact number is not on record here.

Test [1] addresses Heat shock protein HSP 90-alpha (Homo sapiens, UniProt P07900). It is filed as functional, organism-based.
Test [2] has as its target Nuclear receptor subfamily 5 group A member 2 (Homo sapiens, UniProt O00482). It counts as functional, cell-based.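 Note: HEK293T cells transfected with LRH-1 and a StAR promoter luciferase reporter; potency for inhibitors that lower LRH-1 driven reporter light.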
The next test concerns the target Steroidogenic factor 1 (Homo sapiens, UniProt Q13285). In words: Counterscreen for inverse agonists of the liver receptor homolog-1 (LRH-1; NR5A2): Luminescence-based cell-based high throughput dose response assay to identify inverse agonists of the Steroidogenic Factor 1 Nuclear Receptor (SF1; NR5A1). It counts as functional. (Counterscreens check selectivity or assay interference.)

Test [3] in a line: nonselective StAR promoter luciferase inhibitors – cell-based, luminescence, luciferase reporter, counter-screen for LRH-1 inverse agonist project, dose response (AID 651969). It counts as functional. Background: Reporter assays use an easily measured gene product as a stand-in for the process of interest.
The target of test [4] is 26S proteasome non-ATPase regulatory subunit 14 (Homo sapiens, UniProt O00487). As to the kind of experiment: inhibition of proteasome subunit RPN11 – biochemical, fluorescence polarization, uHTS hits, confirmation (AID 602368). It is filed as functional. A general note: In fluorescence polarisation assays a small probe gives low polarisation when free and higher when bound to something large.

Test [5] has as its target 72 kDa type IV collagenase (Homo sapiens, UniProt P08253). In words: Dose Response validation of uHTS RPN11 inhibitor hits using a MMP-2 Fluorescence assay. It counts as functional.
The target in another test is Prothrombin (Bos taurus, UniProt P00735). In words: thrombin protease inhibitors – biochemical, fluorescence polarization, uHTS hits, dose response (AID 602369). It counts as functional.
The next test addresses Beta-galactosidase (Escherichia coli, UniProt Q8VNN2). In words: PubChem AID 485352. It counts as functional.
Test [6] addresses T1, Type-1 angiotensin II receptor (Homo sapiens, UniProt P30556).
T1 sequence (P30556 whole entry): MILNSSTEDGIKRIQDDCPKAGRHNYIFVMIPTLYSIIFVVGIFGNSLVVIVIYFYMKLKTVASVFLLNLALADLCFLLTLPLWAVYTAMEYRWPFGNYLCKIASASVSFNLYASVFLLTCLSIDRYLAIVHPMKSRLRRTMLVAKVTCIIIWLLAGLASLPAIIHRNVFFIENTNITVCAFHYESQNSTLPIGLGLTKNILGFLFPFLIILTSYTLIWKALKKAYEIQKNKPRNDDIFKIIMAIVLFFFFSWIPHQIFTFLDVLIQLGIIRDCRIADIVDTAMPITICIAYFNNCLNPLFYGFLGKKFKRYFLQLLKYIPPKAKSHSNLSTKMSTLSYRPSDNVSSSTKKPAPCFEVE
In words: antagonism of angiotensin II type 1 receptor – cell-based, uHTS hits, selectivity assay for APJ receptor antagonist project, dose response (AID 463214).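 Note: antagonist potency against angiotensin II stimulated AT1 response.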 It counts as functional.

Test [7] relates to Streptococcus sp. 'group A'. As to the kind of experiment: Streptococcus pyogenes SK(-)GAS viability under kanamycin – luminescence, BacTiterGlo, confirmation, counter-screen for streptokinase expression inhibitor project, dose response (AID 1900). It counts as functional, organism-based.
For a further test, the system named is Streptococcus. In words: GAS UMAA2166 growth inhibition – luminescence, BacTiterGlo, counter-screen for streptokinase expression inhibitor project, dose response (AID 1915).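 Note: potency for reduction of bacterial viability or growth.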 It is filed as functional, organism-based.
Test [8] concerns the target T2, Probable nicotinate-nucleotide adenylyltransferase (Staphylococcus aureus (strain N315), UniProt P65502). It counts as functional, Staphylococcus aureus subsp. aureus N315.
In test [9] the target is T2, Probable nicotinate-nucleotide adenylyltransferase. It is filed as functional, Staphylococcus aureus subsp. aureus N315. The following applies: read-out: IC50_Mean.
Test [10] is described as follows: inhibition of ARNT PAS-B/TACC3 complex formation – biochemical, AlphaScreen, cherry-picked samples, confirmation (AID 651703).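 Note: His-tagged ARNT PAS-B domain paired with GST-TACC3 E629A dimer coactivator fragment; potency of inhibitors that break up the complex and lower AlphaScreen signal.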 It is filed as functional, Homo sapiens.
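Throughout, for IC50 Mean: confirmatory dose-response retesting of NadD inhibitor hits first found in an ultra-high-throughput screen.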

Chain of Beta-galactosidase (Q8VNN2 whole entry): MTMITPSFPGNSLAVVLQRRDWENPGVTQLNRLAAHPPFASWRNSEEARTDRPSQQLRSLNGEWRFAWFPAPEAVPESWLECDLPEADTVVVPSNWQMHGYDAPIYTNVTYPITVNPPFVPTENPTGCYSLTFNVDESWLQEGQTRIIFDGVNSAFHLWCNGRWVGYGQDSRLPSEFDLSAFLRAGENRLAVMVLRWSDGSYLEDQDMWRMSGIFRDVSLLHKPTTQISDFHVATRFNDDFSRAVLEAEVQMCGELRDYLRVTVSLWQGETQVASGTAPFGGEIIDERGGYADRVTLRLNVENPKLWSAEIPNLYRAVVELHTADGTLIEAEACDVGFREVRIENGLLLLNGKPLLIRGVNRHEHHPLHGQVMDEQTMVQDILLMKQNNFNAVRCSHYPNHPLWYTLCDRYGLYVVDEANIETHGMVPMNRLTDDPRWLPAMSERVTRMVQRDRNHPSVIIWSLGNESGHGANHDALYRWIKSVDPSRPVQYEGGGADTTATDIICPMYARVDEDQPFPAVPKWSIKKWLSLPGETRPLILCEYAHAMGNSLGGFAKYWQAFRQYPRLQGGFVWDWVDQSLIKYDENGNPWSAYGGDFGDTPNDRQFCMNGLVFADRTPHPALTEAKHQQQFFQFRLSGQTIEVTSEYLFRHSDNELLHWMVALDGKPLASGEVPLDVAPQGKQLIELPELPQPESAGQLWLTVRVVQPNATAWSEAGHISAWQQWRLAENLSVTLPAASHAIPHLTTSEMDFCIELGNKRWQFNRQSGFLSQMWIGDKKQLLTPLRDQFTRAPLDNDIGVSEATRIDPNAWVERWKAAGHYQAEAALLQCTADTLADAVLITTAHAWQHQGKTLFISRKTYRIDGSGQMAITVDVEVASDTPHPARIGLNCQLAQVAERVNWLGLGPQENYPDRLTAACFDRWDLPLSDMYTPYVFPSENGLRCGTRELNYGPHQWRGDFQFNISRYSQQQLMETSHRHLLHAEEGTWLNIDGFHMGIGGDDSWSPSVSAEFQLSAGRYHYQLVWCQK
Chain of 26S proteasome non-ATPase regulatory subunit 14 (O00487 whole entry): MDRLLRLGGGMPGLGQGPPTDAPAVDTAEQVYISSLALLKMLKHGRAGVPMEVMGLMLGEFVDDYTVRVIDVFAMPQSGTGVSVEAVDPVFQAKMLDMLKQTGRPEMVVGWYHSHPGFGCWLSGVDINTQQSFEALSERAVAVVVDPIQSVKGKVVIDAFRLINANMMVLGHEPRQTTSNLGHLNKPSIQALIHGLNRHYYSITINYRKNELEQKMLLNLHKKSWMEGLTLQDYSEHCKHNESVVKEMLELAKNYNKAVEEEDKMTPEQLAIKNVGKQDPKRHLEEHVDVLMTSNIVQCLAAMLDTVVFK
Chain of 72 kDa type IV collagenase (P08253 whole entry): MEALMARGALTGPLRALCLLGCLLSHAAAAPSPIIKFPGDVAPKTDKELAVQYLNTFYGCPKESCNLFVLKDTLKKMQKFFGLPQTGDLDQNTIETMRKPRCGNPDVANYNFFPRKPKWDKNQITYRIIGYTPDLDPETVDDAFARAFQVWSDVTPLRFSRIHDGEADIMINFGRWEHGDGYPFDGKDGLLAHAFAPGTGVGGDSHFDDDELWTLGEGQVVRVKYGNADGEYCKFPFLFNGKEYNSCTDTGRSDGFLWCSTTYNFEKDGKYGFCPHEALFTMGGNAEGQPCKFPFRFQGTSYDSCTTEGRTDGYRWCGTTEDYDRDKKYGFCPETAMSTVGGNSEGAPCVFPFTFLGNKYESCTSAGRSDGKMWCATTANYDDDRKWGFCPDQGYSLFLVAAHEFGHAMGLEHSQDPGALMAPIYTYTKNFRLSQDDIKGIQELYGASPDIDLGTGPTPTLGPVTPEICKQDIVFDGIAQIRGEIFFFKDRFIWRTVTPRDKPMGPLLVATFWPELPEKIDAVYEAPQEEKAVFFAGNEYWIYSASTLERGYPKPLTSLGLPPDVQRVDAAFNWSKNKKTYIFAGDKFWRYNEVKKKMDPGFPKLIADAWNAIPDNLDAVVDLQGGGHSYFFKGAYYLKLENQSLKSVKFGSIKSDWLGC
Chain of Steroidogenic factor 1 (Q13285 whole entry): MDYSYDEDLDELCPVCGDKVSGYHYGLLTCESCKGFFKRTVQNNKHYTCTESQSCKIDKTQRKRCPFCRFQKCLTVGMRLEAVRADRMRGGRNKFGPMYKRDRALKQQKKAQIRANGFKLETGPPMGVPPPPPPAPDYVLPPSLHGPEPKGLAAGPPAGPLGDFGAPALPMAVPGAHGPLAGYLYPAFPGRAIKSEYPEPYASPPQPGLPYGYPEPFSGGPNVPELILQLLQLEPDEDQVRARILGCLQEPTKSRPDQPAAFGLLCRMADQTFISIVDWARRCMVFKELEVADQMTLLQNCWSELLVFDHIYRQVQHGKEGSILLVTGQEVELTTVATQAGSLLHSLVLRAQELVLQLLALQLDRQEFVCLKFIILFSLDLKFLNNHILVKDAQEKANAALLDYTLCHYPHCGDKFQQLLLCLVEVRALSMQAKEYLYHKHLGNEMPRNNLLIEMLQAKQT
Chain of Nuclear receptor subfamily 5 group A member 2 (O00482 whole entry): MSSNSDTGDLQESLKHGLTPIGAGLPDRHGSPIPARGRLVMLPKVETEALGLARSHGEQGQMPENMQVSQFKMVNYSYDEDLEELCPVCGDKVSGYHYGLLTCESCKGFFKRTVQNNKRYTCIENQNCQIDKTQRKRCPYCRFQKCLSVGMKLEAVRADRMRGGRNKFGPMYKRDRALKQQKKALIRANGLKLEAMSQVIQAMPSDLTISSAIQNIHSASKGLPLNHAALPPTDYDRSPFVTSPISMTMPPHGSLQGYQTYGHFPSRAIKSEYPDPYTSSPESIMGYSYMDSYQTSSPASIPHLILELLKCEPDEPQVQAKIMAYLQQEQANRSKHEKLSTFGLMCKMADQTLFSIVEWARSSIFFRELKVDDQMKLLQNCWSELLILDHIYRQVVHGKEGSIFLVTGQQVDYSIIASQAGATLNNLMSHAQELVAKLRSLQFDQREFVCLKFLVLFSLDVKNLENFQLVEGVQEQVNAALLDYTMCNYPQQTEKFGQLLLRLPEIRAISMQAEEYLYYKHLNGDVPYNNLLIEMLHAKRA
T2 sequence (P65502 whole entry): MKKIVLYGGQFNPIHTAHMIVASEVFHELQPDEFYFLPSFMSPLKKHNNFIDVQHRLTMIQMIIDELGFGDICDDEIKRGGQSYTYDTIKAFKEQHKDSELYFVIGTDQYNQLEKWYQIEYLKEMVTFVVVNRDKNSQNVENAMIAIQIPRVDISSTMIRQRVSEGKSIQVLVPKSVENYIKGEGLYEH

Take `Cc1cc(Cl)ccc1C(=O)C1CCCN(C(=O)c2cncs2)C1` (stereo unspecified): in test [1], the AC50 was 3.92 µM (active).
Consider `CCCc1nnc(SCC(=O)Nc2ccc(C(=O)OCC)cc2)o1`, for which the IC50 in test [2] was 35.9 µM (inactive); at Steroidogenic factor 1 it was 1.61 µM (active); in [3], 35.9 µM (inactive).
Take `COc1ccc(NN=C2C(=O)CC(C)(C)CC2=O)c(OC)c1`: the results for the IC50 (in [4]; in test [5]; at Prothrombin) were 27 µM (active), > 100 µM (inactive) and 27.3 µM (active), respectively.
With `CCc1ccccc1NC(=O)CSc1nnc([C@@H]2CCCN2C(=O)OC(C)(C)C)o1`, the IC50 was 12 µM (inactive) in [2], 1.86 µM (active) at Steroidogenic factor 1 and 35.9 µM (inactive) in test [3].
Turning to `O=C(CCCNC(=O)c1ccc(Cl)cc1)OCc1cccc(Br)c1`, in [1], the AC50 was 5.23 µM (active).
In the case of `CCOc1ccc(CCNC(=O)c2nnn(CC(=O)Nc3ccc(C)cc3)c2N)cc1OCC`, the IC50 was 13.1 µM (active) in test [4], > 100 µM (inactive) in [5] and > 100 µM (inactive) at Prothrombin.
`NC(=O)c1ccccc1NCC(=O)c1ccc(F)cc1`: the EC50 on Beta-galactosidase was > 40 µM (inactive). Moreover, in test [6], the IC50 is recorded as 21.6 µM (not active).
Taken in the same sequence, the figures for `Fc1ccc(NC(S)=Nc2ccc(Cl)cc2Cl)cc1` were > 40 µM (inactive) and > 40 µM (not active).
`CC(=O)c1cccc(NC(=O)CCc2nc3sc4c(c3c(=O)[nH]2)CCCC4)c1`: the IC50 in test [4] is 33.9 µM (active); in test [5], > 100 µM (inactive); at Prothrombin, 35.5 µM (active).
For `Oc1cccc2ccc(/C=C/c3cccs3)nc12`, the EC50 in [7] was 1.92 µM (active); on Beta-galactosidase, > 40 µM (inactive); with Streptococcus, 4.2 µM (active). Besides, the IC50 in test [6] is 10.3 µM (active).
As for `CC1=C(C(=O)c2ccccc2)C(c2ccc(N3CCOCC3)cc2)NC(=O)N1` (stereo unspecified), the values for the IC50 (in [4]; in [5]; on Prothrombin) were 17.1 µM (active), > 100 µM (inactive) and 15.5 µM (active), respectively.
For `N#CCSc1ccccc1NC(=O)CN1C(=O)C2CC=CCC2C1=O` (stereo unspecified), the IC50 in test [2] was 6.85 µM (active); on Steroidogenic factor 1, 2.83 µM (active); in test [3] it was 35.9 µM (inactive).
As for `Cc1ccc(Nc2nnc(SCC(O)=C(C#N)c3nc4ccccc4[nH]3)s2)c(C)c1`, the IC50 is 8.52 µM (active) in test [8] and 26.7 µM (active) in [9].
In the case of `O=C(N[C@H]1CC[C@H](CCn2cc(-c3ccccn3)nn2)O[C@H]1CO)c1ccccc1`, the half-maximal activity concentration (AC50) in test [10] was 78.4 µM (active).
In the case of `C=CCn1c(=O)/c(=C2/Sc3cc(OC)ccc3N2C)s/c1=C1\C(=O)N(CC)C(=S)N1C`, the EC50 at Beta-galactosidase is > 40 µM (inactive). Moreover, in [6], the IC50 is listed as > 40 µM (not active).
